# Measured values taken from US8362216B2, “Method of detection using antibodies that specifically bind hedgehog-derived polypeptides” (The Johns Hopkins University School of Medicine, priority 1994, dated 2013).
# Entries after “also recorded” stand apart in the source; their conditions may differ.
# Biological target: His6Hh-C protein (Drosophila melanogaster, UniProt Q02936, DEL89-254)
# Assay: In vitro autocleavage reaction of bacterially expressed His6Hh-C protein (DTT / lipid stimulation)
# Conditions: lipid added with 1 mM DTT (cholesterol 0.35 mM)
# His6Hh-C protein, sequence (Q02936 other isoform, or with tags, fused parts or gaps DEL89-254): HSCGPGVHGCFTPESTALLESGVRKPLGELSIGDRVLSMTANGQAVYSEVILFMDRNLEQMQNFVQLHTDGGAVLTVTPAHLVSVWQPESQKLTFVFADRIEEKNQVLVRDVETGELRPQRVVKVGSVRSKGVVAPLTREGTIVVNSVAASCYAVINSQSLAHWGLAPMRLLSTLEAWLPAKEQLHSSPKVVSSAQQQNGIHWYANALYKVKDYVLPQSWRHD
smiles,measurement,value
CC(C)CCC[C@@H](C)[C@H]1CC[C@H]2[C@@H]3CC=C4C[C@@H](O)CC[C@]4(C)[C@H]3CC[C@]12C [cholesterol],Stimulation of His6Hh-C autocleavage in vitro,stimulates His2Hh-C autocleavage; also recorded: displayed stimulatory activity similar to that observed with lipids extracted from spot B
